Here are results for one compound from patent US6855723B2, “Methods of modulating serine/threonine protein kinase function with azabenzimidazole-based compounds” (Zentaris GmbH, priority 1997, dated 2005).

One series addresses T1, RAF-1 (Homo sapiens, UniProt P04049).
T1 construct: made in house; host or cells: Sf9 (Spodoptera frugiperda) insect cells co-infected with RAS and RAF recombinant baculoviruses
The series can be described thus: RAF-1 ELISA assay (RAF-1 phosphorylation of MEK and MAPK). Format: biochemical. The note with it: RAF-1 phosphorylation assay, lysates from RAS/RAF infected Sf9 cells, T-MEK and His-MAPK substrates. The source says:
Assay Measuring Phosphorylating Function of RAF
The following assay reports the amount of RAF-catalyzed phosphorylation of its target protein MEK as well as MEK's target MAPK. The RAF gene sequence is described in Bonner et al., 1985, Molec. Cell. Biol. 5: 1400-1407, and is readily accessible in multiple gene sequence data banks. Construction of the nucleic acid vector and cell lines utilized for this portion of the invention are fully described in Morrison et al., 1988, Proc. Natl. Acad. Sci. USA 85: 8855-8859.
All of the following steps were conducted at room temperature unless specifically indicated.
1. ELISA plate coating: ELISA wells are coated with 100 μL of Sheep anti mouse affinity purified antiserum (1 μg/100 μL coating buffer) over night at 4° C. […]
11. […] Insert the holder into radioactive detection apparatus and quantify the radioactive phosphorous on the filter mats.
Alternatively, 40 μL aliquots from individual wells of the assay plate can be transferred to the corresponding Positions on the phosphocellulose filter mat. […] Insert the holder into a detection device and quantify the radioactive phosphorous on the filter mats.
IC50 values were measured according to the protocol for the following azabenzimidazole-based compounds in the RAF-1 ELISA assay: [drawing 5] […] The IC50 values measured in the RAF-1 phosphorylation assay are depicted in Table 1: […]
(In general: ELISA stands for enzyme-linked immunosorbent assay.)

The target of a further series is T2, EGF Receptor (Homo sapiens, UniProt P00533).
T2 construct: expressed in transfected cells; host or cells: NIH3T3 cells (EGFR-NIH3T3)
T2 sequence (P00533 25-1210): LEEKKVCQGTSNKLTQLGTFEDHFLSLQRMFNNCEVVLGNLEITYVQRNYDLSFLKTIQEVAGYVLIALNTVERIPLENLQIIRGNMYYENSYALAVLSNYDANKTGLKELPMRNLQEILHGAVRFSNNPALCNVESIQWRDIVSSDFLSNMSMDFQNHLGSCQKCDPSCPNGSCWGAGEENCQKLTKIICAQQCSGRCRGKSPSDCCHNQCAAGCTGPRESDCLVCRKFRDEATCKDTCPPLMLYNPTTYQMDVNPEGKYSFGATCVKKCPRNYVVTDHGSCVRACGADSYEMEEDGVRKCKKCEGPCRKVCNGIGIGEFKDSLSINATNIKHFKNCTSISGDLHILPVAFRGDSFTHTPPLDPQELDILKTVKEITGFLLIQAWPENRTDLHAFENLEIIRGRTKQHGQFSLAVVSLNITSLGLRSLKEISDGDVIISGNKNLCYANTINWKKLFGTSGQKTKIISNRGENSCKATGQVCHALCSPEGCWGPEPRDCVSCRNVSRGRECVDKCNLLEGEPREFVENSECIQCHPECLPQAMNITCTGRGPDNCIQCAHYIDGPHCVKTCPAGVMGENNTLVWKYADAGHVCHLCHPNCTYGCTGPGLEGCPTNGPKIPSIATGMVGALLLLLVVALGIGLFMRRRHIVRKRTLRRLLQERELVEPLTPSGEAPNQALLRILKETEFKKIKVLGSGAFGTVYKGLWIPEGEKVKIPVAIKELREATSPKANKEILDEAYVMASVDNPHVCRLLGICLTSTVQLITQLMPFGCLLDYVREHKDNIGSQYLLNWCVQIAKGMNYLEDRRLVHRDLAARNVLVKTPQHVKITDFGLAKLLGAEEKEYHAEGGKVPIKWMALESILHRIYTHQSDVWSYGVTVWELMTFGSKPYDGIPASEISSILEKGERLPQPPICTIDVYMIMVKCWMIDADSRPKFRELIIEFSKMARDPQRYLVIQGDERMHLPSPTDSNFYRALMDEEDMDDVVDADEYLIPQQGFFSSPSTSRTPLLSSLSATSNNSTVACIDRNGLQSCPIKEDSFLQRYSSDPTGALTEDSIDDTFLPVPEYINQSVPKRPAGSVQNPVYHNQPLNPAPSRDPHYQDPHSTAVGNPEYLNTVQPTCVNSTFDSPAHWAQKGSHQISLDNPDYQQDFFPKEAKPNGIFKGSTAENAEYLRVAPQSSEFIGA
The series can be described thus: EGF receptor phosphorylation assay in whole cells (EGFR-NIH3T3 assay). Format: cell-based. The following applies: EGF receptor kinase activity in whole cells. Here is the method: Assay Measuring Phosphorylating Function of EGF Receptor
EGF Receptor kinase activity (EGFR-NIH3T3 assay) in whole cells was measured as described in detail in PCT Publication WO9640116, filed Jun. 5, 1996, by Tang et al., and entitled “Indolinone Compounds for the Treatment of Disease,” incorporated herein by reference in its entirety, including any drawings.
The IC50 values measured in the EGF receptor phosphorylation assay are depicted in Table 2: […]

In series [1] the test system is 3T3/H-Ras (NIH 3T3 clone 7 cells expressing genomic fragment of oncogenic H-Ras). The series can be described thus: Growth of NIH 3T3 cells over expressing H-Ras (SRB). It is filed as cell-based. The note with it: Mus musculus, NIH3T3, 72 h; cell growth, 2% calf serum, 3 days incubation. As for the experimental part:
Assay Measuring the Effect of Azabenzimidazole-Based Compounds on the Growth of Cells Expression RAS
The following assay measures growth rates for NIH-3T3 cells expressing RAS. The purpose of the assay is to determine the effects of compounds on the growth of NIH 3T3 cells over expressing H-Ras.
• 96-well flat bottom sterile plates • 96-well round bottom sterile plates • sterile 25 mL or 100 mL reservoir • pipets, multi-channel pipetman • sterile pipet tips • sterile 15 mL and 50 mL tubes Reagents • 0.4% SRB in 1% acetic acid • 10 mM Tris base • 10% TCA • 1% acetic acid • sterile DMSO (Sigma) • compound in DMSO (100 mM or less stock solution) • Trypsin-EDTA (GIBCO BRL) Cell Line • 3T3/H-Ras (NIH 3T3 clone 7 cells expressing genomic fragment of oncogenic H-Ras).
The cells can be constructed using the following protocol: • 1. Subclone a gene fragment encoding Ras into a commercially available vector that will stably transfect NIH-3T3 cells. The fragment is from the genomic transforming allele of cHa-ras. • 2. Transfect NIH-3T3 cells with the subcloned vector by a calcium phosphate method. Select cells expressing the Ras construct in 2% serum in DMEM. Visible foci are observed after 2 weeks. Pool the transformed cells to generate a stably transformed cell line. […]
6. Read plates on Dynatech ELISA Plate REader at 570 nm with reference at 630 nm.

Series [2] has as its system A549 human lung carcinoma cells. The series can be described thus: Growth of A549 cells (SRB). The following applies: cell growth. Format: cell-based. As for the experimental part: Assay Measuring Effect of Azabenzimidazole-Based Compounds on Growth of A549 Cells
The following assay measures growth rates for A549 cells. The purpose of the assay is to determine the effects of compounds on the growth of A549 human lung carcinoma cells. A549 cells are readily accessible from commercial sources, such as ATCC (CCL185).
• 96-well flat bottom sterile plates • 96-well round bottom sterile plates • sterile 25 mL or 100 mL reservoir • pipets, multi-channel pipetman • sterile pipet tips sterile 15 mL and 50 mL tubes Reagents • 0.4% SRB in 1% acetic acid • 10 mM Tris base • 10% TCA • 1% acetic acid • sterile DMSO (Sigma) • compound in DMSO (100 mM or less stock solution) • Trypsin-EDTA (GIBCO BRL) Cell Line and Growth Medium • A549 human lung carcinoma cells (ATCC CCL185) • 10% fetal calf serum in Ham's F12-K Protocol Day 0: Cell Plating This part of assay is carried out in a laminar flow hood.
1. Trypsinize cells. Transfer 200 μL of cell suspension to 10 mL of isotone. Count cells with a Coulter Counter.
2. Dilute cells in growth medium to 20,000 cell/mL. Transfer 100 μL of cells to each well in a 96-well flat bottom plate to give 2000 cells/well.
3. Use half of plate (4 rows) for each compound and quadruplicate wells for each compound concentration, and a set of 4 wells for medium control.
4. […]
6. Read plates on Dynatech ELISA Plate Reader at 570 nm with reference at 630 nm.

Where two headings read alike, the source gives them in different places.

T1 sequence (P04049 whole entry): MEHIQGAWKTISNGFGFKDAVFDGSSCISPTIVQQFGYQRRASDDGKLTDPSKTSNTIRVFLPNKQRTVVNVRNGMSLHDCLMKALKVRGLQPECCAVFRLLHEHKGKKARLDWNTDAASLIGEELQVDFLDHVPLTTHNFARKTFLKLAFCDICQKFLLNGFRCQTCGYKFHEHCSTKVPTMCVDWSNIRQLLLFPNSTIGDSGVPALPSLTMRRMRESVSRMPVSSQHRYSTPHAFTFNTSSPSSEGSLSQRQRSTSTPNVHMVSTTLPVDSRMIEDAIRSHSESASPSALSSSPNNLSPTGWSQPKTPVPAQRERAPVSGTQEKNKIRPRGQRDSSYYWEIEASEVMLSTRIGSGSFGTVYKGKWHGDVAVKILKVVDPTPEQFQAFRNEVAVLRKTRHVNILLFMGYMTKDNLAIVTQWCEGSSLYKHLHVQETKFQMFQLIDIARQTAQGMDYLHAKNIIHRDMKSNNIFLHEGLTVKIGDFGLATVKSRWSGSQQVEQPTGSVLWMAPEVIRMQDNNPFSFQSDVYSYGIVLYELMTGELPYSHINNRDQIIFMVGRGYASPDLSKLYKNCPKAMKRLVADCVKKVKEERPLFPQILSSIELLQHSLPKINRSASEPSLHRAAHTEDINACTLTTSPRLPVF

For `COC(=O)Nc1nc2ccc(Oc3ccccc3)nc2[nH]1` [Compound A-3], the melting point (in general, the temperature, or range, at which the solid turns liquid) is > 280 °C (dec.). Besides, the IC50 (commonly the concentration that gives 50% inhibition) against RAF-1 was found to be 6.1 µM. In addition, at EGF Receptor, the IC50 is greater than 100 µM. In series [1], this compound came in with an IC50 of 40 µM. For the same compound, the IC50 in series [2] (2% FBS, read-out: IC50 (μM) A549 (2% FBS)) is 65 µM. In series [2] (10% fetal calf serum in Ham's F12-K, read-out: IC50 (μM) A549), the IC50 is 22 µM.
